In patent US20190046662A1, “Compositions and Methods for Treating Neuropathic Pain” (Rutgers, The State University of New Jersey, priority 2016, published 2019):

Legend:
Type in all cases: in vivo, rat
hSyn-hM4D [1] = molecular target: T1, hSyn-hM4D (Homo sapiens, UniProt P08173, A203G/Y113C); assay: von Frey detection threshold, synapsin-DREADD (hSyn-hM4D) in right trigeminal ganglion, non-CCI animals; conditions: n=7 per group, CNO i.p. vs vehicle
T1 construct: expressed in transfected cells; host or cells: rat trigeminal ganglion neurons in vivo, viral vector with synapsin promoter
T1 sequence (P08173 1-479 Y113C/A203G): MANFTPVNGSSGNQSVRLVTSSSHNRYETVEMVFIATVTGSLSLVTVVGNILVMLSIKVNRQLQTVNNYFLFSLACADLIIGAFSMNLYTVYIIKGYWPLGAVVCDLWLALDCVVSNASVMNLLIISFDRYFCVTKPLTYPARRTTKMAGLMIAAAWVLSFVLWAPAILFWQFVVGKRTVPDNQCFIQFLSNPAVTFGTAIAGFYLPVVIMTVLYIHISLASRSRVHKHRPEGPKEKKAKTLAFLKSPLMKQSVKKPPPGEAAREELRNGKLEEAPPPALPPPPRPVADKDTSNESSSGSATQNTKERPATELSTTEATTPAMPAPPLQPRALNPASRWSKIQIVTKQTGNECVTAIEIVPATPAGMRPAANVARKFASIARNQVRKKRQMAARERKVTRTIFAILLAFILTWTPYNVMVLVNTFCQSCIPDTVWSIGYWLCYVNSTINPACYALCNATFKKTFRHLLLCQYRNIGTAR
Source text: The effects of synapsin-DREADD activation with CNO on von Frey detection threshold were studied (FIG. 3). The von Frey assay uses von Frey fibers, which are small pieces of nylon rod of varying diameters, to test a rodent's sensitivity to a mechanical stimulus. The von Frey assay is generally considered a mechanical nociceptive threshold test. All animals (males, n=7 per group; females, n=7 per group) had synapsin-DREADD (hSyn-hM4D; synapsin promoter driven DREADD) injected into the right trigeminal ganglion. Average von Frey detection thresholds (±SEM) were plotted following intraperitoneal (i.p.) administration of CNO or vehicle.

hSyn-hM4D [2] = molecular target: T1, hSyn-hM4D; assay: Pin-prick response score, synapsin-DREADD (hSyn-hM4D) in right trigeminal ganglion, non-CCI animals; conditions: n=7 per group, CNO i.p. vs vehicle
Source text: The effects of synapsin-DREADD activation with CNO on pin-prick response score were also studied (FIG. 4). The pin-prick assay is generally considered a nociceptive threshold test. All animals (males, n=7 per group; females, n=7 per group) had synapsin-DREADD (hSyn-hM4D) injected into the right trigeminal ganglion. Average pin-prick response scores (±SEM) are plotted following intraperitoneal (i.p.) administration of CNO or vehicle.

hSyn-hM4D [3] = molecular target: T1, hSyn-hM4D; assay: Face grooming after s.c. formalin into right upper lip, synapsin-DREADD (hSyn-hM4D); conditions: n=7 per group, vs vehicle
Experimental: The effects of synapsin-DREADD activation with CNO on face grooming activity observed after subcutaneous (s.c.) injection of formalin into the right upper lip were also studied (FIG. 5). The mean number of seconds that rats (males, n=7 per group; females, n=7 per group) spent grooming (±SEM) is plotted for the 45 minutes post-formalin injection observation period. All animals had synapsin-DREADD (hSyn-hM4D) injected into the right trigeminal ganglion. CNO or vehicle was delivered intraperitoneally 30 minutes prior to the s.c. injection of 1.5% formalin (50 μl) into the right upper lip (ipsilateral side), just lateral to the nose.

hTac1-hM4D [4] = molecular target: T2, hTac1-hM4D (Homo sapiens, UniProt P08173, A203G/Y113C); assay: von Frey detection threshold, Tac1-DREADD (hTac1-hM4D) in right trigeminal ganglion, non-CCI animals; conditions: females, n=7 per group, CNO i.p. vs vehicle
T2 construct: expressed in transfected cells; host or cells: rat trigeminal ganglion neurons in vivo, viral vector with Tac1 promoter
T2 sequence (P08173 1-479 Y113C/A203G): T1 sequence (P08173 1-479 Y113C/A203G)
Source text: The effects of Tac1-DREADD activation with CNO on von Frey detection threshold were also studied (FIG. 7). All animals (female, n=7 per group) had Tachykinin 1-DREADD (hTac1-hM4D; Tac1 promoter driven DREADD) injected into the right trigeminal ganglion. Average von Frey detection thresholds (±SEM) are plotted following intraperitoneal administration of CNO or vehicle.

hTac1-hM4D [5] = molecular target: T2, hTac1-hM4D; assay: Pain-like behavior after IoN-CCI, Tac1-DREADD (hTac1-hM4D); conditions: IoN-CCI males
Source text: For the infraorbital nerve chronic constriction injury (ION-CCI), ˜0.5 cm of the infraorbital nerve will be freed and two chromic gut ligatures will be loosely tied around it (2 mm apart) prior to closure of the incision (all performed under ketamine/xylazine anesthesia). As a control, other rats will undergo sham surgery where the infraorbital nerve is exposed but left untouched. This model results in persistent pain beginning at about 2 weeks postoperatively and lasting at least 3 weeks (Benoliel et al. (2001) Neurosci. Lett., 297:151-4; Benoliel et al. (2002) Pain 97:203-12), allowing for the assessment of the effect of vehicle vs CNO/DREADD-mediated inhibition of TG neurons on this behavior at multiple time points. Fos expression and cAMP levels may also be measured in the TG to correlate these molecular endpoints to behavioral effects of DREADD activation. The rats will also undergo repeated stimulation with a 2-g von Frey hair applied to the hairy skin of the vibrissae on the operated side to induce Fos (Vos et al. (1995) J. Comp. Neurol., 357:362-75). Activation of hM4Di receptors will reduce Fos in the TG following von Frey stimulation.
The effects of Tac1-DREADD activation with CNO on pain-like behavior following IoN-CCI were studied (FIG. 10). The mean von Frey detection thresholds (±SEM) (left) and the mean response scores (±SEM) (right) to the pin-prick stimulation applied to the vibrissal pads were plotted. All animals (males, n=7 per group) were exposed to the infraorbital nerve chronic constriction injury (IoN-CCI) unilaterally. Following IoN-CCI, all animals had tachykinin 1-DREADD (hTac1-hM4D) injected into the ipsilateral trigeminal ganglion. At post-operative day 26 (D26) CNO or vehicle was delivered intraperitoneally 30 minutes prior to behavioral testing.

[6] = Tac1-DREADD study (sentence prints hSyn-hM4D), CNO i.p. at D26

Q: For `C[N+]1([O-])CCN(C2=Nc3cc(Cl)ccc3Nc3ccccc32)CC1` [CNO, clozapine N-oxide], which “von Frey detection threshold, ipsilateral vibrissal pad” value (hSyn-hM4D [1]; females, D28, 30 min after CNO, F=1.2, P=0.3) is on record?
A: no significant effect

Q: And the “von Frey detection threshold, contralateral vibrissal pad” value (hSyn-hM4D [1]; females, F=2.8, P=0.1)?
A: no significant effect

Q: And the “von Frey detection threshold, contralateral vibrissal pad” value (hSyn-hM4D [1]; males, F=1.2, P=0.3)?
A: no significant effect

Q: And the “von Frey detection threshold, ipsilateral vibrissal pad” value (hSyn-hM4D [1]; males, F=3.3, P=0.1)?
A: no significant effect

Q: What about the “pin-prick response score, contralateral side” value (hSyn-hM4D [2]; females, F=0.1, P=0.7) of the same molecule?
A: no significant effect

Q: And the “pin-prick response score, ipsilateral side” value (hSyn-hM4D [2]; females, F=0.1, P=0.8)?
A: no significant effect

Q: What about the “pin-prick response score, contralateral (left) vibrissal pad” value (hSyn-hM4D [2]; males, F=1.3, P=0.3) of the same molecule?
A: No significant effect

Q: And the “pin-prick response score, ipsilateral (right) vibrissal pad” value (hSyn-hM4D [2]; males, F=9.8, P=0.01)?
A: significantly reduced

Q: And the “total face grooming time, tonic phase (12-45 minutes post formalin injection)” value (hSyn-hM4D [3]; females, CNO i.p. 30 min prior to formalin, F=5.5, P=0.02)?
A: significantly reduced

Q: And the “total face grooming time, tonic phase (12-45 minutes post formalin injection)” value (hSyn-hM4D [3]; males, CNO i.p. 30 min prior to 1.5% formalin (50 μl) s.c., F=27.1, P<0.0001)?
A: significantly reduced

Q: What about the “total face grooming time, acute phase (0-6 minutes post formalin injection)” value (hSyn-hM4D [3]; males, CNO i.p. 30 min prior to formalin, F=4.5, P=0.04) of the same molecule?
A: significant reduction

Q: And the “von Frey detection threshold, contralateral vibrissal pad” value (hTac1-hM4D [4]; F=0.4, P=0.6)?
A: no significant effect

Q: What about the “von Frey detection threshold, ipsilateral vibrissal pad” value (hTac1-hM4D [4]; F=1.4, P=0.3) of the same molecule?
A: no significant effect

Q: And the “von Frey detection threshold, ipsilateral side, compared to vehicle treated animals” value (hTac1-hM4D [5]; n=7 per group, hTac1-hM4D, CNO i.p. at D26, 30 min prior to testing, F=6.3, P=0.03)?
A: significantly increased

Q: And the “pin-prick response score, ipsilateral vibrissal pad, compared to vehicle treated animals” value (hTac1-hM4D [5]; n=7 per group, hTac1-hM4D, CNO i.p. at D26, F=8.6, P=0.01)?
A: significantly decreased

Q: What about the “pin-prick response score, contralateral side” value (hTac1-hM4D [5]; [6]) of the same molecule?
A: No significant effects

Q: What about the “von Frey detection threshold, contralateral side” value (hTac1-hM4D [5]; [6]) of the same molecule?
A: No significant effects

Q: And the “pin-prick response score, ipsilateral side, compared to post-operative days 21 and 27” value (hTac1-hM4D [5]; hTac1-hM4D, CNO i.p. at D26, D21 F=18.9, P=0.0003, D27 F=16.9, P=0.0006)?
A: significantly decreased

Q: What about the “von Frey detection threshold, ipsilateral side, compared to post-operative days 21 and 27” value (hTac1-hM4D [5]; hTac1-hM4D, CNO i.p. at D26, D21 F=31.4, P<0.0001, D27 F=9.8, P=0.006) of the same molecule?
A: significantly increased
